Results taken from US8273767B2, “Bicyclic-substituted amines as histamine-3 receptor ligands” (Abbott Laboratories, priority 2002, dated 2012).
Where a name gives a salt, the structure may show the parent alone.

Point of comparison: `C[C@@H]1CCCN1CCc1ccc2cc(-c3ccc(F)cc3)ccc2n1` (as salt: hydrochloride) [Example 43, 6-(4-fluorophenyl)-2-{2-[(2R)-2-methyl-1-pyrrolidinyl]ethyl}quinoline], melting point 145 °C. Against it:
- C[C@@H]1CCCN1CCc1ccc2cc(-c3ccc(N(C)C)cc3)ccc2n1 (as salt: tartrate) [Example 115, Dimethyl-(4-{2-[2-(2(R)-methyl-pyrrolidin-1-yl)-ethyl]-quinolin-6-yl}-phenyl)-amine] — higher, 155 to 156 °C
- C[C@@H]1CCCN1CCc1ccc2cc(-c3cccc(C#N)c3)ccc2c1 [Example 7, 3-(6-{2-[(2R)-2-methyl-1-pyrrolidinyl]ethyl}-2-naphthyl)benzonitrile] — higher, 228.5 to 231.6 °C
- C[C@@H]1CCCN1Cc1ccc2cc(-c3ccc(C#N)cc3)ccc2c1 (as salt: hydrochloride) [Example 6, 4-(6-{[(2R)-2-methyl-1-pyrrolidinyl]methyl}-2-naphthyl)benzonitrile] — higher, 212.6 to 213.6 °C
- CC(=O)c1cccc(-c2ccc3nc(CCN4CCC[C@H]4C)ccc3c2)c1 (as salt: hydrochloride) [Example 45, 1-[3-(2-{2-[(2R)-2-methyl-1-pyrrolidinyl]ethyl}-6-quinolinyl)phenyl]ethanone] — higher, 174 to 175 °C
- C[C@@H]1CCCN1CCc1ccc2cc(-c3cncnc3)ccc2n1 (as salt: hydrochloride) [Example 113, 2-[2-(2(R)-Methyl-pyrrolidin-1-yl)-ethyl]-6-pyrimidin-5-yl-quinoline] — higher, 160 to 162 °C
- C[C@@H]1CCCN1CCc1ccc2cc(-c3cccnc3)ccc2n1 (as salt: hydrochloride) [Example 51, 2-{2-[(2R)-2-methyl-1-pyrrolidinyl]ethyl}-6-(3-pyridinyl)quinoline] — higher, 205 to 207 °C
- C[C@@H]1CCCN1CCc1ccc2cc(Br)ccc2c1 (as salt: HCl) [Example 2, (2R)-1-[2-(6-bromo-2-naphthyl)ethyl]-2-methylpyrrolidine] — higher, 247.3 to 250.7 °C
- C[C@@H]1CCCN1CCc1ccc2cc(-c3cc(F)cc(F)c3)ccc2n1 (as salt: hydrochloride) [Example 49, 6-(3,5-difluorophenyl)-2-{2-[(2R)-2-methyl-1-pyrrolidinyl]ethyl}quinoline] — higher, 164 to 165 °C
- C[C@@H]1CCCN1CCc1ccc2cc(C#N)ccc2c1 (as salt: hydrochloride) [Example 5, 6-{2-[(2R)-2-methyl-1-pyrrolidinyl]ethyl}-2-naphthonitrile] — higher, 187.4 to 188.6 °C
- CC(=O)c1ccc(-c2ccc3nc(CCN4CCC[C@H]4C)ccc3c2)cc1 (as salt: tartrate) [Example 116, 1-(4-{2-[2-(2(R)-Methyl-pyrrolidin-1-yl)-ethyl]-quinolin-6-yl}-phenyl)-ethanone] — higher, 152 to 154 °C
- CSc1ccc(-c2ccc3nc(CCN4CCC[C@H]4C)ccc3c2)cc1 (as salt: hydrochloride) [Example 122, 2-[2-(2(R)-Methyl-pyrrolidin-1-yl)-ethyl]-6-(4-methylsulfanyl-phenyl)-quinoline] — higher, 158 to 159 °C
- COc1ccc(-c2ccc3nc(CCN4CCC[C@H]4C)ccc3c2)cn1 (as salt: tartrate) [Example 108, 6-(6-Methoxy-pyridin-3-yl)-2-[2(R)-(2-methyl-pyrrolidin-1-yl)-ethyl]-quinoline] — lower, 132 to 134 °C
- Cc1noc(C)c1-c1ccc2nc(CCN3CCC[C@H]3C)ccc2c1 (as salt: hydrochloride) [Example 120, 6-(3,5-Dimethyl-isoxazol-4-yl)-2-[2-(2(R)-methyl-pyrrolidin-1-yl)-ethyl]-quinoline] — higher, 174 to 175 °C
- C[C@@H]1CCCN1CCc1ccc2cc(-c3ccc(F)nc3F)ccc2n1 (as salt: tartrate) [Example 109, 6-(2,6-Difluoro-pyridin-3-yl)-2-[2-(2R-methyl-pyrrolidin-1-yl)-ethyl]-quinoline] — lower, 142 to 143 °C
- C[C@@H]1CCCN1CCc1ccc2cc(-c3ccc(Cl)cc3)ccc2n1 (as salt: hydrochloride) [Example 117, 6-(4-Chloro-phenyl)-2-[2-(2(R)-methyl-pyrrolidin-1-yl)-ethyl]-quinoline] — higher, 154 to 155 °C
- C[C@@H]1CCCN1CCc1ccc2cc(-c3ccc(F)nc3)ccc2n1 (as salt: hydrochloride) [Example 123, 6-(6-Fluoro-pyridin-3-yl)-2-[2-(2(R)-methyl-pyrrolidin-1-yl)-ethyl]-quinoline] — higher, 162 to 163 °C
- C[C@@H]1CCCN1CCc1ccc2cc(-c3ccc(Cl)nc3)ccc2n1 (as salt: tartrate) [Example 110, 6-(6-Chloro-pyridin-3-yl)-2-[2-(2(R)-methyl-pyrrolidin-1-yl)-ethyl]-quinoline] — higher, 167 to 168 °C
- C[C@@H]1CCCN1CCc1ccc2cc(-c3ccncc3)ccc2n1 (as salt: hydrochloride) [Example 107, 2-[2-(2R-Methyl-pyrrolidin-1-yl)-ethyl]-6-pyridin-4-yl-quinoline] — not separable, 145 to 147 °C
- C[C@@H]1CCCN1CCc1ccc2cc(-c3ccc(C#N)cc3)ccc2c1 (as salt: tartrate) [Example 1, 4-(6-{2-[(2R)-2-methyl-1-pyrrolidinyl]ethyl}-2-naphthyl)benzonitrile] — higher, 157.4 to 158.1 °C
- C[C@@H]1CCCN1CCc1ccc2cc(-c3cccc(C#N)c3)ccc2n1 (as salt: tartrate) [Example 44, 3-(2-{2-[(2R)-2-methyl-1-pyrrolidinyl]ethyl}-6-quinolinyl)benzonitrile] — higher, 172 °C
- C[C@@H]1CCCN1CCc1ccc2cc(-c3ccc(C#N)cc3)ccc2n1 (as salt: tartrate) [Example 42, 4-(2-{2-[(2R)-2-methyl-1-pyrrolidinyl]ethyl}-6-quinolinyl)benzonitrile] — higher, 164 °C
- COC(=O)c1ccc(-c2ccc3nc(CCN4CCC[C@H]4C)ccc3c2)cc1 (as salt: hydrochloride) [Example 121, 4-{2-[2-(2(R)-Methyl-pyrrolidin-1-yl)-ethyl]-quinolin-6-yl}-benzoic acid methyl ester] — higher, 172 to 174 °C
- Cc1ccc(-c2ccc3nc(CCN4CCC[C@H]4C)ccc3c2)c(C)n1 (as salt: hydrochloride) [Example 118, 6-(2,6-Dimethyl-pyridin-3-yl)-2-[2-(2(R)-methyl-pyrrolidin-1-yl)-ethyl]-quinoline] — higher, 176 to 177 °C
- C[C@@H]1CCCN1CCc1ccc2cc(-c3ccc(Cl)nc3Cl)ccc2n1 (as salt: hydrochloride) [Example 111, 6-(2,6-Dichloro-pyridin-3-yl)-2-[2-(2(R)-methyl-pyrrolidin-1-yl)-ethyl]-quinoline] — lower, 105 to 107 °C
- C[C@@H]1CCCN1CCc1ccc2cc(-c3cncc(C#N)c3)ccc2n1 (as salt: tartrate) [Example 124, 5-{2-[2-(2(R)-Methyl-pyrrolidin-1-yl)-ethyl]-quinolin-6-yl}-nicotinonitrile] — lower, 100 to 102 °C

For `C[C@@H]1CCCN1CCc1ccc2cc(-c3ccc(C(F)(F)F)cc3)ccc2n1` (as salt: hydrochloride) [Example 47, 2-{2-[(2R)-2-methyl-1-pyrrolidinyl]ethyl}-6-[4-(trifluoromethyl)phenyl]quinoline], the melting point was 143 to 145 °C (dec.).
For `C[C@@H]1CCCN1CCc1ccc2cc(C(=O)c3cccc(F)c3)ccc2n1` (as salt: hydrochloride) [Example 50, (3-fluorophenyl)(2-{2-[(2R)-2-methyl-1-pyrrolidinyl]ethyl}-6-quinolinyl)methanone], the melting point was 162 to 164 °C (dec.).
In the case of `COc1ccc(-c2ccc3nc(CCN4CCC[C@H]4C)ccc3c2)cc1` (as salt: hydrochloride) [Example 46, 6-(4-methoxyphenyl)-2-{2-[(2R)-2-methyl-1-pyrrolidinyl]ethyl}quinoline], the melting point is reported as 165 °C (dec.).
